# Reference: PubChem BioAssay (NCI)
#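 Results reflect a 48-hour exposure of cells in 96-well plates to compound at five concentrations. Here, GI50 denotes the concentration required for 50% inhibition of growth. TGI is the concentration that stops growth completely.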
# Key:
# Assay in all cases: NCI-60 cell line screen, 48 h
# KM12 colon = tested on: KM12 colon
# UACC-62 melanoma = tested on: UACC-62 melanoma
# SK-MEL-2 melanoma = tested on: SK-MEL-2 melanoma
# HCT-116 colon = tested on: HCT-116 colon
# SF-295 CNS = tested on: SF-295 CNS
# NCI-H23 lung = tested on: NCI-H23 lung
# RXF 393 renal = tested on: RXF 393 renal
# IGROV1 ovarian = tested on: IGROV1 ovarian
# K-562 leukemia = tested on: K-562 leukemia
# MALME-3M melanoma = tested on: MALME-3M melanoma
Compound,TGI (KM12 colon) [µM],TGI (UACC-62 melanoma) [µM],TGI (SK-MEL-2 melanoma) [µM],TGI (HCT-116 colon) [µM],TGI (SF-295 CNS) [µM],TGI (NCI-H23 lung) [µM],TGI (RXF 393 renal) [µM],TGI (IGROV1 ovarian) [µM],TGI (K-562 leukemia) [µM],TGI (MALME-3M melanoma) [µM],GI50 (KM12 colon) [µM],GI50 (UACC-62 melanoma) [µM],GI50 (SK-MEL-2 melanoma) [µM],GI50 (HCT-116 colon) [µM],GI50 (SF-295 CNS) [µM],GI50 (NCI-H23 lung) [µM],GI50 (RXF 393 renal) [µM],GI50 (IGROV1 ovarian) [µM],GI50 (K-562 leukemia) [µM],GI50 (MALME-3M melanoma) [µM]
O=C1CCCC/C1=C/C=C/c1ccccc1,> 100,> 100,> 100,> 100,> 100,> 100,> 100,> 100,> 100,> 100,,,,,,,,,,
N#Cc1ccccc1C#C/C=C\C#Cc1ccc(OCCCNC(=O)c2cc3ccccc3[nH]2)cc1,44.2,28.4,44.6,39.6,34.6,98.2,52.2,33.7,19,34.8,16.3,13.7,20.5,14.8,16.1,24.2,21.4,14.1,3.2,14
CC(=O)O[C@@H]1CO[C@H]2O[C@H]3[C@@H](C(C=O)=C[C@H](O)[C@@H]4C5=C(C(C)C)CC[C@]5(C)CC[C@@]34C)[C@@]2(O)C1=O,1.46,1.06,0.596,0.27,3.98,0.893,0.362,0.714,0.368,0.347,,,,,,,,,,
O=Cc1ccc(-c2ccc(-c3ccc(C=O)s3)o2)s1,> 100,0.441,> 100,> 100,> 100,> 100,2.65,35.8,> 100,> 100,,,,,,,,,,
CN1C(=O)CNC(=O)[C@H](NC(=O)c2nc3ccccc3cc2O)CSSC[C@H]1C(=O)NCCc1nc2ccccc2cc1O,47.7,38.6,8.47,57.6,> 100,60.9,36,> 100,13.9,44.1,0.96,7.64,2.57,2.05,14.3,13.6,13.9,32,1.57,15.8
Cc1ccccc1C(=O)Oc1ccc(Oc2ccccc2)cc1,> 100,> 100,> 100,> 100,> 100,> 100,> 100,> 100,> 100,> 100,,,,,,,,,,
O=C(Nc1cc(C(F)(F)F)ccc1F)Nc1n[nH]c2ccccc12,> 100,> 100,> 100,> 100,> 100,> 100,> 100,> 100,> 100,> 100,> 100,> 100,> 100,> 100,> 100,> 100,> 100,0.758,> 100,> 100
O=C(Nc1ccc(Br)cc1)Nc1n[nH]c2ccccc12,> 100,> 100,> 100,> 100,> 100,> 100,> 100,> 100,> 100,> 100,> 76.4,> 100,> 100,33.8,> 100,> 100,> 62.8,17.5,59.1,> 19.7
CN1CCN(c2ccc3nc(-c4cc(C(C)(C)C)c(O)c(C(C)(C)C)c4)[nH]c3c2)CC1,4.32,3.38,5.49,4.06,3.66,10.3,3.52,12.6,4.97,2.95,1.8,1.87,2.38,1.85,1.83,3.31,1.72,3.65,1.94,1.55
Nc1cc(-c2ccccc2)ccc1O,> 100,> 100,> 100,> 100,> 100,> 100,> 100,> 100,> 100,> 100,58.4,37.3,> 100,54.6,55.2,> 100,> 100,> 100,> 100,> 100
CC(=O)OC1CC2CCC1(C)C2(C)C (stereo not given),> 100,> 100,> 100,> 100,> 100,> 100,> 100,> 100,> 100,> 100,,,,,,,,,,
